# Source: PMC5750651, “Disposition, Metabolism and Histone Deacetylase and Acetyltransferase Inhibition Activity of Tetrahydrocurcumin and Other Curcuminoids” (Pharmaceutics, 2017)
# Entries after “also recorded” stand apart in the source; their conditions may differ. Like-named read-outs stand apart in the source and are kept apart here.
# Assays:
# [1] = molecular target: CYP2D6 (Homo sapiens, UniProt P10635); assay: Vivid CYP450 screening kit, CYP2D6; conditions: 0.01-100 μM
# Method: CYP2C9, CYP3A4, CYP1A2 and CYP2D6 assays were performed to assess metabolism and inhibition of human P450 isozymes involved using Vivid® CYP450 screening kits and CYP450 BACULOSOMES® Plus Reagents. CYP450 BACULOSOMES® Plus Reagents express only one CYP450 enzyme, preventing metabolism by other CYP450s. For CYP2C9, the substrate was BOMF and the positive control inhibitor sulfaphenazole; for CYP3A4, DBOMF was the substrate and ketoconazole the positive control inhibitor; for CYP1A2, the substrate was EOMCC and the positive control inhibitor naphthoflavone; for CYP2D6, the substrate was EOMCC and the positive control inhibitor quinidine. The assays were performed using the excitation and emission wavelengths recommended by the manufacturer. […] The plate was incubated for 10 min at room temperature (25 ± 1 °C) on a plate shaker. Then, 10 μL of Vivid® Substrate was added to each well to start the reaction. […] The assay was done in triplicate. The reading was performed at 1 min intervals for 60 min. Inhibition was calculated as (1 − (X − B/A − B)) × 100%, where X was the average of compound fluorescence, A was the average of solvent control and B was the average of inhibition in the presence of positive inhibitor control. The percent inhibition was calculated relative to a fixed concentration of the positive control. […]
# [2] = system: Sup-T1 cells; assay: Cellular growth inhibition assay (MTS); assay type: cell-based; conditions: for IC50: Homo sapiens
# Method: The CellTiter 96® AQueous One Solution Cell Proliferation Assay (MTS, Promega, Madison, WI, USA) was used to measure proliferation inhibition of cultured cells. Briefly, Sup-T1 cells were cultured in RPMI 1640 supplemented with 10% FBS and 1% penicillin/streptomycin at 37 °C and 5% CO2. […] The MTS reagent was added and incubated for 4 h. […] Sup-T1 cells were used in this study because curcuminoids are thought in part to work via an HDAC inhibitor mechanism and as some HDACs are approved for some T-cell lymphomas, we used Sup-T1 cells because they are a T-cell lymphoma cell line that is established. To the best of our knowledge no other study has measured the effects of THC on Sup-T1 cells.
# Data for the PCAF and HDAC1 inhibition and viability assays were used to derive percent changes based on no treatment controls. Each of three data sets were then fit to a 4-parameter logistic regression using SigmaPlot 12.2 to derive IC50 values, which were then used to determine the mean and SD.
# [3] = molecular target: T1, HDAC1 (Homo sapiens, UniProt Q13547); assay: HDAC1 inhibitor screening assay kit (fluorescence); assay type: biochemical
# T1 construct: purchased Cayman 10011564
# T1 sequence (Q13547 whole entry): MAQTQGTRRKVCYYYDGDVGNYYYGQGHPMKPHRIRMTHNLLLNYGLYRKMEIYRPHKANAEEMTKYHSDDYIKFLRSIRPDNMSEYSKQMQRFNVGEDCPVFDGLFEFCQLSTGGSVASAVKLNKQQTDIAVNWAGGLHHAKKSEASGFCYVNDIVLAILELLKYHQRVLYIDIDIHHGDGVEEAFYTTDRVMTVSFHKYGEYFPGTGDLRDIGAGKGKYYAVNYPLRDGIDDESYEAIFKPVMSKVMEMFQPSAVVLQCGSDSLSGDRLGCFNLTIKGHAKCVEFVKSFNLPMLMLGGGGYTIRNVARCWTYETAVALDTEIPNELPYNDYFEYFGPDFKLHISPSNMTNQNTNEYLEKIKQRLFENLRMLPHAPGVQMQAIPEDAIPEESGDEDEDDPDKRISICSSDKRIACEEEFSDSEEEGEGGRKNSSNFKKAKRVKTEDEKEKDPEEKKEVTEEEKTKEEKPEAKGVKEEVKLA
# [4] = molecular target: T2, COX-1 (Ovis aries, UniProt P05979); assay: COX inhibitor screening assay kit, COX-1; assay type: biochemical; conditions: mean ± SD
# T2 construct: purchased Cayman Chemical 560131
# T2 sequence (P05979 25-600): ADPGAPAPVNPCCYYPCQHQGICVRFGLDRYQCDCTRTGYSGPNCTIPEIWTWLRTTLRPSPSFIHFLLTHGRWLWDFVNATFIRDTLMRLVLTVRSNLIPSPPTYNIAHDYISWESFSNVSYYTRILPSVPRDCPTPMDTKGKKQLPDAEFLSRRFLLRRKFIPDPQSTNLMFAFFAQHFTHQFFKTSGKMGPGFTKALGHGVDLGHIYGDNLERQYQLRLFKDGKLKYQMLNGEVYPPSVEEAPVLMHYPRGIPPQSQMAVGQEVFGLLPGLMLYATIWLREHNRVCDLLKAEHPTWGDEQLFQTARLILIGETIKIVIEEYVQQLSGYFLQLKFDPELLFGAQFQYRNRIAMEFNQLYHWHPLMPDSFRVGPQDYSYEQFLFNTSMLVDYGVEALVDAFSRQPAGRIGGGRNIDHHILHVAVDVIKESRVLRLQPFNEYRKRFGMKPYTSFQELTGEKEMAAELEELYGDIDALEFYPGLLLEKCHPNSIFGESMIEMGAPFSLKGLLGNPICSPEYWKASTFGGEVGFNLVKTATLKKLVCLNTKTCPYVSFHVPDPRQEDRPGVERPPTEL
# Method: The assay was performed in quadruplet using a COX Inhibitor Screening Assay Kit from Cayman Chemical (Cat. No. 560131) according to the manufacturer’s instructions.
# [5] = molecular target: T3, CYP2C9 (Homo sapiens, UniProt P11712); assay: Vivid CYP450 screening kit, CYP2C9; assay type: in vitro ADME; conditions: 0.01-100 μM, relative to sulfaphenazole
# T3 construct: purchased Life Technologies P2860
# T3 sequence (P11712 whole entry): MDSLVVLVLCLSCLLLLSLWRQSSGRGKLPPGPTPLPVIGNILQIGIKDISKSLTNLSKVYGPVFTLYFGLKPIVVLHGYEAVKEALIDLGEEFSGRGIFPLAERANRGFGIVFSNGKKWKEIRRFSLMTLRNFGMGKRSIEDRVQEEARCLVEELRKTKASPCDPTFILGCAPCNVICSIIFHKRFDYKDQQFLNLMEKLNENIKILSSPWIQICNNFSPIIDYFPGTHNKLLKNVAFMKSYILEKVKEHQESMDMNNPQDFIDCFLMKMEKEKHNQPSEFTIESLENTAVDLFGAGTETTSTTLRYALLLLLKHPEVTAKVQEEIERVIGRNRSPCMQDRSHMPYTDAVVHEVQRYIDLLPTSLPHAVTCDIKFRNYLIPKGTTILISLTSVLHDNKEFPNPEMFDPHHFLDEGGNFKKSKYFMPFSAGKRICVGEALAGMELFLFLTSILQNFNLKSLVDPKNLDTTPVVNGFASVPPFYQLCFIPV
# [6] = molecular target: T4, 15-lipoxygenase derived from soybean (Glycine max, UniProt P08170); assay: Lipoxygenase inhibitor screening assay kit; conditions: for lipoxygenase inhibition (in words): 1, 10 and 250 μg/mL tested, versus control
# T4 sequence (P08170 1-839): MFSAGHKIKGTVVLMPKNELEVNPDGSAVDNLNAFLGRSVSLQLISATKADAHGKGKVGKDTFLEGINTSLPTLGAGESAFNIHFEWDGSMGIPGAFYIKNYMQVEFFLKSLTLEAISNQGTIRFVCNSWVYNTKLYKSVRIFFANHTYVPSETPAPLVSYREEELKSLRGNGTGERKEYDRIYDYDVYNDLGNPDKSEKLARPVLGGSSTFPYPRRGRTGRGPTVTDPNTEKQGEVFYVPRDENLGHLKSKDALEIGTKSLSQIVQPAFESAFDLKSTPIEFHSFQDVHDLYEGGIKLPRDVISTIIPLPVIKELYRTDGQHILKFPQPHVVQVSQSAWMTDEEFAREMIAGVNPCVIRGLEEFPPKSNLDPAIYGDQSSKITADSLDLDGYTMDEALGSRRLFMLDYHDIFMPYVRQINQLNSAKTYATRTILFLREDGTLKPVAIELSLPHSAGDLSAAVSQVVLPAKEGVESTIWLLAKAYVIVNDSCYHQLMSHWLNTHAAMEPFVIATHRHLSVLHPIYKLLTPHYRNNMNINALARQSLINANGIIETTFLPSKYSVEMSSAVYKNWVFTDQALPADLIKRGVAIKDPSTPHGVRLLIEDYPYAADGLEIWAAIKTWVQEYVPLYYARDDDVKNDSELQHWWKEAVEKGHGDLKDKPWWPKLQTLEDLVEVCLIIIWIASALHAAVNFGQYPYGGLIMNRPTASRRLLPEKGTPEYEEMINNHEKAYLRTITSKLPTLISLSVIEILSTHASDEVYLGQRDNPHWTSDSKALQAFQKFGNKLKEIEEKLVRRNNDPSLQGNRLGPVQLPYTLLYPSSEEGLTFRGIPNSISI
# Sequence of CYP2D6 (P10635 whole entry): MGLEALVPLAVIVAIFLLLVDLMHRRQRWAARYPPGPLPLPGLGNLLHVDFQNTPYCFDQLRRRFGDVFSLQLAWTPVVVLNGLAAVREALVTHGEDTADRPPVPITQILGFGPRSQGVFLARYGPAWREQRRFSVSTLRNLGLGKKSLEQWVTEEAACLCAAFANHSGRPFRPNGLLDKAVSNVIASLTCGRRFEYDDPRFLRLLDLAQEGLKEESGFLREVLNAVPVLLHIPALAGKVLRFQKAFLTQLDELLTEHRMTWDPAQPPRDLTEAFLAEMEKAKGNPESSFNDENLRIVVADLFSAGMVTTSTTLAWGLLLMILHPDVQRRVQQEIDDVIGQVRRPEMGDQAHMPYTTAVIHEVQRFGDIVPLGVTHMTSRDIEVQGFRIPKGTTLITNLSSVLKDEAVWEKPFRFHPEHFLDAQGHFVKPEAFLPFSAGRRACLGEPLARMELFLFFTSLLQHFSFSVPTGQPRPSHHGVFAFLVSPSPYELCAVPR
Structure (SMILES),CYP2D6 inhibition (in words) [1],"IC50 ([2]; Sup-T1 growth inhibition, MTS, mean ± SD, read-out: Viability IC50)",IC50 ([3]; mean ± SD),IC50 [4],CYP2C9 inhibition (in words) [5],lipoxygenase inhibition (in words) [6],lipoxygenase inhibition (in words) ([6]; listed as calebin-A),"IC50 ([2]; SUP-T1, read-out: Viability IC50)","maximal growth inhibition ([2]; Sup-T1 cells, up to 100 μM)",HDAC1 inhibition (in words) ([3]; 0.1-250 μg/mL),"lowest concentration inhibiting lipoxygenase ([6]; soybean 15-lipoxygenase, linoleic acid substrate)"
"COc1cc(/C=C/C(=O)COC(=O)/C=C/c2ccc(O)c(OC)c2)ccc1O [Calebin-A, calebin-A]",did not show a consistent dose-response inhibition,26.2 ± 17 µM,61.3 ± 11 µM,1070 ± 490 µM,dose-dependent inhibition,did not show any activity,no such inhibitory activity,–,–,–,–
"COc1cc(CCC(=O)CC(=O)CCc2ccc(O)c(OC)c2)ccc1O [THC, tetrahydrocurcumin]",did not show a consistent dose-response inhibition,–,–,918 ± 1300 µM,dose-dependent inhibition,"inhibited soybean 1,5-lipoxygenase at all doses tested; also recorded: potent lipoxygenase inhibition",–,82 ± 116 µM,≤ 40%,no inhibitory activity,≤ 1 µM
